According to patent publication US20050250715A1, “Remedy” (priority 2002, published 2005):

Test system: NGF
Assay: Enhancing activity for NGF production in L-M cells (NGF in culture medium by enzyme immunoassay)
Assay type: cell-based, murine
Details: 20 hours; for Amount of NGF Production (%): control = 100%
Experimental: (2) The enhancing activity for NGF production of the compound a was assayed. L-M cells (ATCC CCL-1.2) from murine fibroblasts were suspended in an M199 medium (manufactured by Bio Whittaker) containing 0.5% bactopeptone (manufactured by Gibco) so as to have a concentration of 1.5×10^5 cells/mL. The suspension was put in a 96 well plate in an amount of 0.1 mL each well, and the cells were aseptically cultured. After culturing the cells for 3 days, the medium was removed therefrom, and exchanged with an M199 medium containing 0.5% bovine serum albumin (manufactured by Sigma). The compound a was added thereto, and the cells were cultured for 20 hours. After the termination of the culture, the concentration of NGF in the culture medium was assayed by an enzyme immunoassay method (NGF Emax Immuno Assay System, manufactured by Promega). The experiment was carried out twice, and an average value was taken. […] The amount of NGF production of the control was 0.739 ng/mL. As to the control, the concentration in the culture medium was determined in the same manner except that the compound a was not added. It is the same as that of the following examples.

SMILES	enhancing activity for NGF production (result in words)	Amount of NGF Production (%) (Concentration of Sample 0.5 mM)	Amount of NGF Production (%) (Concentration of Sample 1.0 mM)	Amount of NGF Production (%) (Concentration of Sample 2 mM)
CC(=O)OC1C(OC2C(O)COC(OC3C(O)C(C)(C)CC4C5=CCC6C7(C)CCC(OC8OC(C(=O)O)C(O)C(O)C8OC8OC(CO)C(O)C(O)C8OC8OC(CO)C(O)C(O)C8O)C(C)(CO)C7CCC6(C)C5(C)CCC43C)C2O)OCC(O)C1O [Compound a, 3-O-[β-D-glucopyranosyl(1→2)-β-D-galactopyranosyl-(1→2)-β-D-glucuronopyranosyl]-22-O-[2-O-acetyl-β-D-xylopyranosyl(1→3)-α-L-arabinopyranosyl]soyasapogenol A]	has an enhancing activity for NGF production	228.3	231.6	212.6
CC(=O)OC1C(O)COC(OC2C(O)COC(OC3C(O)C(C)(C)CC4C5=CCC6C7(C)CCC(OC8OC(C(=O)O)C(O)C(O)C8OC8OC(CO)C(O)C(O)C8OC8OC(CO)C(O)C(O)C8O)C(C)(CO)C7CCC6(C)C5(C)CCC43C)C2O)C1O [Compound b, 3-O-[β-D-glucopyranosyl(1→2)-β-D-galactopyranosyl-(1→2)-β-D-glucuronopyranosyl]-22-O-[3-O-acetyl-β-D-xylopyranosyl(1→3)-α-L-arabinopyranosyl]soyasapogenol A]	has an enhancing activity for NGF production	220.9	251.2	272.3
CC(=O)OC1COC(OC2C(O)COC(OC3C(O)C(C)(C)CC4C5=CCC6C7(C)CCC(OC8OC(C(=O)O)C(O)C(O)C8OC8OC(CO)C(O)C(O)C8OC8OC(CO)C(O)C(O)C8O)C(C)(CO)C7CCC6(C)C5(C)CCC43C)C2O)C(O)C1O [Compound c, 3-O-[β-D-glucopyranosyl(1→2)-β-D-galactopyranosyl-(1→2)-β-D-glucuronopyranosyl]-22-O-[4-O-acetyl-β-D-xylopyranosyl(1→3)-α-L-arabinopyranosyl]soyasapogenol A]	has an enhancing activity for NGF production	255.1	289.2	323.7
CC(=O)OC1C(O)COC(OC2C(O)COC(OC3C(O)C(C)(C)CC4C5=CCC6C7(C)CCC(OC8OC(C(=O)O)C(O)C(O)C8OC8OC(CO)C(O)C(O)C8OC8OC(CO)C(O)C(O)C8O)C(C)(CO)C7CCC6(C)C5(C)CCC43C)C2O)C1OC(C)=O [Compound d, 3-O-[β-D-glucopyranosyl(1→2)-β-D-galactopyranosyl-(1→2)-β-D-glucuronopyranosyl]-22-O-[2,3-di-O-acetyl-β-D-xylopyranosyl(1→3)-α-L-arabinopyranosyl]soyasapogenol A]	has an enhancing activity for NGF production	255.8	281.1	276.5
CC(=O)OC1COC(OC2C(O)COC(OC3C(O)C(C)(C)CC4C5=CCC6C7(C)CCC(OC8OC(C(=O)O)C(O)C(O)C8OC8OC(CO)C(O)C(O)C8OC8OC(CO)C(O)C(O)C8O)C(C)(CO)C7CCC6(C)C5(C)CCC43C)C2O)C(OC(C)=O)C1O [Compound e, 3-O-[β-D-glucopyranosyl(1→2)-β-D-galactopyranosyl-(1→2)-β-D-glucuronopyranosyl]-22-O-[2,4-di-O-acetyl-β-D-xylopyranosyl(1→3)-α-L-arabinopyranosyl]soyasapogenol A]	has an enhancing activity for NGF production	214.0	233.7	230.1
CC(=O)OC1COC(OC2C(O)COC(OC3C(O)C(C)(C)CC4C5=CCC6C7(C)CCC(OC8OC(C(=O)O)C(O)C(O)C8OC8OC(CO)C(O)C(O)C8OC8OC(CO)C(O)C(O)C8O)C(C)(CO)C7CCC6(C)C5(C)CCC43C)C2O)C(O)C1OC(C)=O [Compound f, 3-O-[β-D-glucopyranosyl(1→2)-β-D-galactopyranosyl-(1→2)-β-D-glucuronopyranosyl]-22-O-[3,4-di-O-acetyl-β-D-xylopyranosyl(1→3)-α-L-arabinopyranosyl]soyasapogenol A]	has an enhancing activity for NGF production	204.5	208.8	218.5
CC(=O)OCC1OC(OC2C(O)COC(OC3C(O)C(C)(C)CC4C5=CCC6C7(C)CCC(OC8OC(C(=O)O)C(O)C(O)C8OC8OC(CO)C(O)C(O)C8OC8OC(CO)C(O)C(O)C8O)C(C)(CO)C7CCC6(C)C5(C)CCC43C)C2O)C(O)C(OC(C)=O)C1OC(C)=O [Compound g, 3-O-[β-D-glucopyranosyl(1→2)-β-D-galactopyranosyl-(1→2)-β-D-glucuronopyranosyl]-22-O-[3,4,6-tri-O-acetyl-β-D-glucopyranosyl(1→3)-α-L-arabinopyranosyl]soyasapogenol A]	has an enhancing activity for NGF production	295.4	277.2	247.6
CC(=O)OCC1OC(OC2C(O)COC(OC3C(O)C(C)(C)CC4C5=CCC6C7(C)CCC(OC8OC(C(=O)O)C(O)C(O)C8OC8OC(CO)C(O)C(O)C8OC8OC(CO)C(O)C(O)C8O)C(C)(CO)C7CCC6(C)C5(C)CCC43C)C2O)C(OC(C)=O)C(OC(C)=O)C1OC(C)=O [Compound h, 3-O-[β-D-glucopyranosyl(1→2)-β-D-galactopyranosyl-(1→2)-β-D-glucuronopyranosyl]-22-O-[2,3,4,6-tetra-O-acetyl-β-D-glucopyranosyl(1→3)-α-L-arabinopyranosyl]soyasapogenol A]	has enhancing activity for NGF production	273.3	301.7	307.2
CC1(C)C[C@@H](O)[C@]2(C)CC[C@]3(C)C(=CC[C@@H]4[C@@]5(C)CC[C@H](O[C@@H]6O[C@H](C(=O)O)[C@@H](O)[C@H](O)[C@H]6O[C@@H]6O[C@H](CO)[C@H](O)[C@H](O)[C@H]6O[C@@H]6O[C@H](CO)[C@@H](O)[C@H](O)[C@H]6O)[C@@](C)(CO)[C@@H]5CC[C@]43C)[C@@H]2C1 [Compound i, 3-O-[β-D-glucopyranosyl(1→2)-β-D-galactopyranosyl-(1→2)-β-D-glucuronopyranosyl]-soyasapogenol B]	has enhancing activity for NGF production	–	116.8	169.4
